The record followed here is ChEMBL document CHEMBL5370619, “Targeting the Tyrosine Kinase 2 (TYK2) Pseudokinase Domain: Discovery of the Selective TYK2 Inhibitor ABBV-712” (J Med Chem, 2023).

In brackets after ≈: the same amount, converted by molar mass. Some results are limits rather than exact numbers.

Data set [1] concerns the target T1, CYP3A4 (Homo sapiens, UniProt P08684). The data set is described as follows: Time dependent inhibition of CYP3A4 in human liver microsomes using midazolam as substrate assessed as 1'-OH midazolam metabolite formation at 50 uM preincubated for 30 mins in presence of NADPH followed by substrate addition and measured after 15 mins by HPLC-MS/MS analysis relative to control. It is filed as ADME, Microsome. Conditions: probe midazolam, time 45 min, read-out: TDI. (In general: Liver microsomes are a subcellular fraction often used to study metabolism.)

Data set [2] addresses T2, Tyrosine-protein kinase JAK3 (Homo sapiens, UniProt P52333).
T2 sequence (P52333 whole entry): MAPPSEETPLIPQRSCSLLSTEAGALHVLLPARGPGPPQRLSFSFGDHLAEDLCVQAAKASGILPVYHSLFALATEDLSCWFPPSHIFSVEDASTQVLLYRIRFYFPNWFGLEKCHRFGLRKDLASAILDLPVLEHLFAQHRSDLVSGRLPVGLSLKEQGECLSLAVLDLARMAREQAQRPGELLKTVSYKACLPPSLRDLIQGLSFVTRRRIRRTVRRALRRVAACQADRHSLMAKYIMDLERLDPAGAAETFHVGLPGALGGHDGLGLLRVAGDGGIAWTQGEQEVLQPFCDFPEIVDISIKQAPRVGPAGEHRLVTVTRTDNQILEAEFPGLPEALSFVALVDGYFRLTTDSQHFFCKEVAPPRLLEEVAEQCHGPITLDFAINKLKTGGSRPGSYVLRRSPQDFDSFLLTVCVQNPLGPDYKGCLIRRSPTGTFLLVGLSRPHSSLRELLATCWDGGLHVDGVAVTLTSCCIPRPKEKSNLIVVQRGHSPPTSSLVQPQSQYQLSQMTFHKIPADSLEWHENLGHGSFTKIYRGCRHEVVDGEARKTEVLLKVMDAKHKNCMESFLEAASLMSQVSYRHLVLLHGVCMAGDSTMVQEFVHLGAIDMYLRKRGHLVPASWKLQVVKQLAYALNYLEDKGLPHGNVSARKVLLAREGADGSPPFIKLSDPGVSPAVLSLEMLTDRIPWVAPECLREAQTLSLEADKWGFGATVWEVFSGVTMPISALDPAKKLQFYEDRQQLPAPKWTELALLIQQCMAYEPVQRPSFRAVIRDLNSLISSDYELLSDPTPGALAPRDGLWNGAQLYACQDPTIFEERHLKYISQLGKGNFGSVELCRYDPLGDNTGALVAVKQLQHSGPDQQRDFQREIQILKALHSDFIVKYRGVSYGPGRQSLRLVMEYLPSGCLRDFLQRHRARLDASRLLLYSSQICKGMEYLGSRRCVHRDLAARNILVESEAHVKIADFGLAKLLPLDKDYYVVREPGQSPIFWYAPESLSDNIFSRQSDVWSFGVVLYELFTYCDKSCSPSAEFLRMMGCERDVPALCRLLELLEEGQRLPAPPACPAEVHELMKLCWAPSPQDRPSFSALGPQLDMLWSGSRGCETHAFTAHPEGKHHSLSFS
The data set is described as follows: Inhibition of JAK3 in human T-blast cells assessed as reduction in IL-2 induced STAT5 phosphorylation preincubated for 30 mins followed by IL-2 stimulation and measured after 20 mins by AlphaScreen assay. Type of data set: cell-based, T-blast cell. Background: In Alpha technology, singlet oxygen from a donor bead excites a nearby acceptor bead.

Data set [3] addresses T1, CYP3A4. The data set is described as follows: Induction of CYP3A4 in human hepatocytes assessed as fold increase in mRNA level at 10 uM incubated for 24 hrs by RT-qPCR analysis relative to control. It is filed as ADME, cell-based, Hepatocyte. Conditions: read-out: FC.
A short description of data set [4]: Half life in dog at 1 mg/kg, iv. Type of data set: ADME, organism-based, Canis lupus familiaris. Conditions: in vivo.
Data set [5] in a line: Metabolic stability in monkey hepatocytes assessed as intrinsic clearance for unbound fraction of drug. It is filed as ADME, cell-based, Macaca mulatta, Hepatocyte. The following applies: rhesus monkey.
Data set [6] in a line: Half life in cynomolgus monkey at 1 mg/kg, iv. It is filed as ADME, organism-based, Macaca fascicularis. Conditions: in vivo.
Data set [7] is described as follows: Unbound clearance in cynomolgus monkey blood at 1 mg/kg, iv. It is filed as ADME, organism-based, Macaca fascicularis. The following applies: in vivo.
Data set [8] is described as follows: Oral bioavailability in rat at 1 mg/kg. Type of data set: ADME, organism-based. The following applies: in vivo.
The target in data set [9] is Tyrosine-protein kinase JAK2 (Homo sapiens, UniProt O60674). The data set is described as follows: Inhibition of JAK2 in human UT7 cells assessed as reduction in erythropoietin induced STAT5 phosphorylation preincubated for 30 mins followed by erythropoietin stimulation and measured after 20 mins by AlphaScreen assay. Type of data set: cell-based.
Chain of Tyrosine-protein kinase JAK2 (O60674 whole entry): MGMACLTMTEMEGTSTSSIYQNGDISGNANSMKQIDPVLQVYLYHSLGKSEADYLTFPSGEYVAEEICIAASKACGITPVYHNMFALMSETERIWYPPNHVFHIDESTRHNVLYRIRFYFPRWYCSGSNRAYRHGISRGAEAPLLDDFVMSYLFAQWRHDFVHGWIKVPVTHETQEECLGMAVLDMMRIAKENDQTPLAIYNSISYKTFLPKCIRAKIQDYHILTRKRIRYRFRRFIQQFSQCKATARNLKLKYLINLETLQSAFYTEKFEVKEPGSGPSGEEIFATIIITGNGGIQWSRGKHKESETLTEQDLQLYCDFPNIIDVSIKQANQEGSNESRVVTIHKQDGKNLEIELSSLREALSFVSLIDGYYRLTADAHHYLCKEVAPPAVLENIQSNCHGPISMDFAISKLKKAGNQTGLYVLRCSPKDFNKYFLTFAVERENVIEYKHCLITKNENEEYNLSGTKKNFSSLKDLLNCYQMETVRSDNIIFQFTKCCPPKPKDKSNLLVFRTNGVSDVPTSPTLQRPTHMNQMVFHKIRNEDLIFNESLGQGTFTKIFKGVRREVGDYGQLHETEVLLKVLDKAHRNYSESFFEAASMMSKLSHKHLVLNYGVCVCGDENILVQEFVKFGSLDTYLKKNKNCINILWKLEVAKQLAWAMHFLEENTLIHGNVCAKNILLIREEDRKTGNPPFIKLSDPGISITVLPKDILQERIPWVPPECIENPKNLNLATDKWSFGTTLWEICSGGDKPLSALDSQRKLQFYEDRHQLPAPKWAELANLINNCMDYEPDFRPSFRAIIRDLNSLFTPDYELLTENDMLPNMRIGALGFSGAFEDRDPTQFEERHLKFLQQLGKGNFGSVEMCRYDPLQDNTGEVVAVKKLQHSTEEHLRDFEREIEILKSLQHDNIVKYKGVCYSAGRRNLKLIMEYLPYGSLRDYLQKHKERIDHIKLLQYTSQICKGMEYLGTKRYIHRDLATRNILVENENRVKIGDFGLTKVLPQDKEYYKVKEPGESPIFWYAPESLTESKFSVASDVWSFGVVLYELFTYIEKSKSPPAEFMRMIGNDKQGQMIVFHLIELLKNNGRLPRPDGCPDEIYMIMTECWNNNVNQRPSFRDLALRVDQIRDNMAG
In data set [10] the target is T1, CYP3A4. Nature of the data set: Induction of CYP3A4 in human hepatocytes assessed as maximum activation in mRNA level at 10 uM incubated for 24 hrs by RT-qPCR analysis relative to control. Type of data set: ADME, cell-based, Hepatocyte. The following applies: read-out: max activation. A general note: Real-time PCR tracks product formation cycle by cycle.
Data set [11] has as its system Mus musculus. The data set is described as follows: Anti-inflammatory activity in B10.RII mouse model of mouse IL-23 mini circle induced psoriasiform dermatitis assessed as decrease in ear thickness at 30 mg/kg,po BID for 5 days by caliper analysis. Also on record: scale not given: the % may be the effect or the level left. Type of data set: functional. The following applies: time 5 day.

A short description of data set [12]: AUC (0 to infinity) in dog at 1 mg/kg,po. It is filed as ADME, organism-based, Canis lupus familiaris. Also on record: dose 1 mg/kg, route po. Conditions: in vivo.
Data set [13] concerns Mus musculus. The data set is described as follows: Anti-inflammatory activity in B10.RII mouse model of mouse IL-23 mini circle induced psoriasiform dermatitis assessed as decrease in ear thickness at 10 mg/kg,po BID for 5 days by caliper analysis. It is filed as functional. Conditions: time 5 day. The arrangement: scale not given: the % may be the effect or the level left.

Data set [14] is described as follows: In vivo inhibition of TYK2 in po dosed IL-12/IL-18 induced C57/B6 mouse model assessed as reduction in serum IFN-gamma production measured at 1 to 10000 ng/ml of whole blood drug exposure level measured after 30 mins. It is filed as functional, organism-based. Conditions: C57/B6, 0.5 h.
Data set [15] is described as follows: Thermodynamic solubility in PBS at pH 7.4. Conditions: read-out: Therm_solubility. Type of data set: physicochemical.
The subject of data set [16] is Mus musculus. Nature of the data set: Anti-inflammatory activity in po dosed B10.RII mouse model of mouse IL-23 mini circle induced psoriasiform dermatitis assessed as decrease in ear thickness measured at 1 to 100 ng/ml of whole blood drug exposure level measured after 30 mins. Type of data set: functional, organism-based. Conditions: 0.5 h.
Data set [17] in a line: Unbound clearance in rat blood at 1 mg/kg, iv or 1 mg/kg,po. The following applies: in vivo. Type of data set: ADME, organism-based.
A short description of data set [18]: Volume of distribution at steady state in rat at 1 mg/kg, iv or 1 mg/kg,po. Conditions: in vivo, read-out: Vdss. Type of data set: ADME, organism-based.
Data set [19] in a line: Metabolic stability in human hepatocytes assessed as intrinsic clearance for unbound fraction of drug. Type of data set: ADME, cell-based, Hepatocyte.
The target of data set [20] is Non-receptor tyrosine-protein kinase TYK2 (Homo sapiens, UniProt P29597). Nature of the data set: Inhibition of TYK2 in human whole blood assessed as decrease in STAT4 phosphorylation preincubated for 30 mins followed by human IL-23 stimulation and measured after 20 mins by flow cytometry. Type of data set: tissue-based.
Chain of Non-receptor tyrosine-protein kinase TYK2 (P29597 whole entry): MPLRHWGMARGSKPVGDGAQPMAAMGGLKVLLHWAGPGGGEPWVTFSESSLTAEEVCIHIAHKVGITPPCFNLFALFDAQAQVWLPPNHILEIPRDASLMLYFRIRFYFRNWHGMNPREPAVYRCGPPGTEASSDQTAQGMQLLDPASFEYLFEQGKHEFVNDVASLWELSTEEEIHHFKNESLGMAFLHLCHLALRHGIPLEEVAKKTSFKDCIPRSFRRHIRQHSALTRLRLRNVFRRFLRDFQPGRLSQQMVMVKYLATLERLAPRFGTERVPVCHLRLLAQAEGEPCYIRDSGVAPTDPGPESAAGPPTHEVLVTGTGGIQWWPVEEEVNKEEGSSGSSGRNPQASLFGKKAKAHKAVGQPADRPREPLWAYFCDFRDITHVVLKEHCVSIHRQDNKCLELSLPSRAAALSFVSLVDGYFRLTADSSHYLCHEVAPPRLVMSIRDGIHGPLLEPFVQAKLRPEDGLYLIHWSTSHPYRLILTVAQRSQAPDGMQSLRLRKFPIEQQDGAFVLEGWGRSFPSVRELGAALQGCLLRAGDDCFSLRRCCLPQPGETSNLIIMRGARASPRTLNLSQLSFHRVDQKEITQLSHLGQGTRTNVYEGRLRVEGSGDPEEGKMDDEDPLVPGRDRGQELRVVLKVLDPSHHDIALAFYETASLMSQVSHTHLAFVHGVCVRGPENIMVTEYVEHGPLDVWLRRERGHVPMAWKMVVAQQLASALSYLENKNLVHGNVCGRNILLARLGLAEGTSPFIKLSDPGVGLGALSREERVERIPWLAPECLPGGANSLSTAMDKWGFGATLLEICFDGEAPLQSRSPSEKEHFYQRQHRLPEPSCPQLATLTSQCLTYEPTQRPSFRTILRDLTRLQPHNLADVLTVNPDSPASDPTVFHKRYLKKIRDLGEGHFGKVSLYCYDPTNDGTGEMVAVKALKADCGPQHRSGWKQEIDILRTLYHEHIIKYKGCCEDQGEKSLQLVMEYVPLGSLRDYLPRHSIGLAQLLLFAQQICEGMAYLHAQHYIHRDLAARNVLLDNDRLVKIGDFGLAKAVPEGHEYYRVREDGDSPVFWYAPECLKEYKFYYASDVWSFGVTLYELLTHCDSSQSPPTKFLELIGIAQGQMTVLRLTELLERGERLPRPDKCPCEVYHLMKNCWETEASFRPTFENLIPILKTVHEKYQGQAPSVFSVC
A short description of data set [21]: Oral bioavailability in cynomolgus monkey at 1 mg/kg. It is filed as ADME, organism-based, Macaca fascicularis. Conditions: in vivo.
Data set [22] in a line: Half life in rat at 1 mg/kg, iv or 1 mg/kg,po. Type of data set: ADME, organism-based. The following applies: in vivo.
Data set [23] can be described thus: In vivo inhibition of TYK2 in IL-12/IL-18 induced C57/B6 mouse model assessed as reduction in serum IFN-gamma production at 30 mg/kg,po pretreated for 30 mins prior to IL-12/IL-18 challenge and measured after 4 hrs by MSD assay. Type of data set: functional. The following applies: C57/B6, 4.5 h, time 270 min.
Data set [24] in a line: In vivo inhibition of TYK2 in IL-12/IL-18 induced C57/B6 mouse model assessed as reduction in serum IFN-gamma production at 300 mg/kg,po pretreated for 30 mins prior to IL-12/IL-18 challenge and measured after 4 hrs by MSD assay. It is filed as functional. Conditions: C57/B6, 4.5 h, time 270 min.

T1 sequence (P08684 whole entry): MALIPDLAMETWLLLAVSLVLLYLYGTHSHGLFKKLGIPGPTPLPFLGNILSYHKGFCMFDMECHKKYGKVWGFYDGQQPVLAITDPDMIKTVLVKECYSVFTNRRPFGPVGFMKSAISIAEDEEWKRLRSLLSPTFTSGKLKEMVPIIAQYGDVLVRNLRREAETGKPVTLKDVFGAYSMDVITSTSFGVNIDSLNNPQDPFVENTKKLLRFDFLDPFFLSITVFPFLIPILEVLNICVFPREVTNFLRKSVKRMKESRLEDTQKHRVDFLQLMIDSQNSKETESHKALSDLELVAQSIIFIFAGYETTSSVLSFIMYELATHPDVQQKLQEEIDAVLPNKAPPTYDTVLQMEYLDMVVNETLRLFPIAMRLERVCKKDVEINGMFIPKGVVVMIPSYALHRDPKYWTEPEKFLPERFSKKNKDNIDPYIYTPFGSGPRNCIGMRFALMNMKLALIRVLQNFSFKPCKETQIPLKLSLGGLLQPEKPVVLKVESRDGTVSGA

Turning to `COCc1cc(-c2cn(C3COC3)c3cnc(NC(C)=O)cc23)nc([C@]2(OC)CCOC2)c1`, the inhibition at 0.25 h, 50 µM in [1] was 22%. Moreover, the EC50 in [2] was above 20 µM; in data set [9], above 20 µM; in [16] it was 0.104 µg/mL (≈ 0.23 µM); in [20] it was 0.16 µM. For the same molecule, in [3], the fold induction at 24 h, 10 µM is 1.5. In addition, the figures for the half-life in data set [4], in [6] and in [22] were 4.5 h, 1.2 h and 0.6 h, respectively. In addition, the CL free in [5] stood at 45 mL/min/kg; in data set [7], 38.3 mL/min/kg; in data set [17] it was 68.3 mL/min/kg; in [19], 31.7 mL/min/kg. Besides, the bioavailability is 19% in data set [8] and 17% in [21]. Besides, the Emax at 24 h, 10 µM in data set [10] was 2%. Moreover, the Activity in data set [11] worked out at 51%; in data set [13] it was 38%. Besides, in data set [12], the AUC(0-inf) worked out at 2300 ng·h/mL. The IC50 in data set [14] turned out to be 3.08 µg/mL (≈ 6.81 µM). The solubility thermodynamic in data set [15] was determined as 708 µM (≈ 320 µg/mL). Moreover, in [18], the Vd was found to be 1.9 L/kg. Besides, in data set [23], the inhibition in vivo at 30 mg/kg is 77%. For the same molecule, in data set [24], the inhibition in vivo at 300 mg/kg stood at 95%.

By EC50 is commonly meant the concentration giving half of the maximal effect. One may read the half-life as the time in which the quantity being followed falls by half. In general, bioavailability refers to dose-corrected exposure relative to a reference, in per cent. What is called AUC(0-inf) is total exposure, with the tail of the curve extrapolated. A word on the IC50: it is the midpoint of a concentration-inhibition curve. One may read the inhibition in vivo as the relative decrease from the control value, in per cent.
